# Data as given in ChEMBL document CHEMBL4229410, “Facile construction of fused benzimidazole-isoquinolinones that induce cell-cycle arrest and apoptosis in colorectal cancer cells” (Bioorg Med Chem, 2018).
# pKd: −log10 of the molar value. Calls of active or inactive are those of the source. The rule behind the calls is not given here.
# Key:
# Ephrin type-A receptor 2 [1] = molecular target: T1, Ephrin type-A receptor 2 (Homo sapiens, UniProt P29317); experiment: Binding affinity to human EPHA2 (T593 to V891 residues) expressed in bacterial expression system by KINOMEscan assay
# SW-620 [2] = experiment: Inhibition of colony formation in human SW620 cells assessed as reduction in colony size at 25 to 75 uM treated for 48 hrs followed by compound washout and measured after 14 hrs by crystal violet staining based assay; format: functional, cell-based
# HT-29 [3] = experiment: Induction of apoptosis in human HT-29 cells assessed as early apoptotic cells at 25 uM after 48 hrs by Annexin-V-FITC/propidium iodide staining based flow cytometry (reference value: 1%); format: functional
# [4] = molecular target: Serine/threonine-protein kinase 32C (Homo sapiens, UniProt Q86UX6); experiment: Inhibition of human YANK3 (M68 to G486 residues) expressed in bacterial expression system assessed as residual activity at 5 uM by KINOMEscan assay relative to control
# [5] = molecular target: Protein kinase C epsilon type (Homo sapiens, UniProt Q02156); experiment: Binding affinity to human PRKCE (A378 to P737 residues) expressed in mammalian expression system by KINOMEscan assay
# [6] = molecular target: Bone morphogenetic protein receptor type-2 (Homo sapiens, UniProt Q13873); experiment: Binding affinity to human BMPR2 (R179 to Q526 residues) expressed in mammalian expression system by KINOMEscan assay
# [7] = molecular target: Serine/threonine-protein kinase mTOR (Homo sapiens) (UniProt P42345); experiment: Inhibition of mTOR in human SW620 cells assessed as reduction in 4EBP1 phosphorylation up to 75 uM after 48 hrs by Western blot analysis; format: cell-based
# [8] = molecular target: NUAK family SNF1-like kinase 2 (Homo sapiens) (UniProt Q9H093); experiment: Inhibition of human SNARK (P22 to A333 residues) expressed in mammalian expression system assessed as residual activity at 5 uM by KINOMEscan assay relative to control
# [9] = molecular target: Serine/threonine-protein kinase STK11 (Homo sapiens, UniProt Q15831); experiment: Binding affinity to full length human LKB1 (M1 to Q433 residues) expressed in bacterial expression system by KINOMEscan assay
# SW-620 [10] = experiment: Induction of apoptosis in human SW620 cells after 48 hrs by Annexin-V-FITC/propidium iodide staining based flow cytometry; format: functional, cell-based
# [11] = molecular target: T2, Macrophage colony-stimulating factor 1 receptor (Homo sapiens, UniProt P07333); experiment: Inhibition of human CSF1R (I564 to S939 residues) expressed in bacterial expression system assessed as residual activity at 5 uM by KINOMEscan assay relative to control
# [12] = molecular target: T2, Macrophage colony-stimulating factor 1 receptor; experiment: Binding affinity to human CSF1R (I564 to S939 residues) expressed in bacterial expression system by KINOMEscan assay
# [13] = molecular target: Mitogen-activated protein kinase 9 (Homo sapiens, UniProt P45984); experiment: Binding affinity to full length human JNK2 (M1 to Q382 residues) expressed in mammalian expression system by KINOMEscan assay
# [14] = molecular target: Serine/threonine-protein kinase PLK1 (Homo sapiens, UniProt P53350); experiment: Binding affinity to human PLK1 (A33 to F325 residues) expressed in mammalian expression system by KINOMEscan assay
# [15] = molecular target: Mitogen-activated protein kinase 14 (Homo sapiens, UniProt Q16539); experiment: Inhibition of full length human p38alpha (M1 to S360 residues) expressed in bacterial expression system assessed as residual activity at 5 uM by KINOMEscan assay relative to control
# HT-29 [16] = experiment: Cell cycle arrest in human HT-29 cells assessed as increase in accumulation at G2/M-phase after 48 hrs by propidium iodide staining based flow cytometry; format: functional
# TGF-beta receptor type-1 = TGF-beta receptor type-1 (Homo sapiens, UniProt P36897); experiment: Binding affinity to human TGFBR1 (D179 to M503 residues) expressed in bacterial expression system by KINOMEscan assay
# [17] = molecular target: Tyrosine-protein kinase ABL1 (Homo sapiens, UniProt P00519); experiment: Inhibition of human phosphorylated ABL1 (S229 to K512 residues) expressed in mammalian expression system assessed as residual activity at 5 uM by KINOMEscan assay relative to control
# [18] = molecular target: Serine/threonine-protein kinase PLK3 (Homo sapiens, UniProt Q9H4B4); experiment: Binding affinity to partial length human PLK3 (A42 to L334 residues) expressed in mammalian expression system by KINOMEscan assay
# [19] = molecular target: Serine/threonine-protein kinase PLK4 (Homo sapiens) (UniProt O00444); experiment: Inhibition of partial length human PLK4 (M1 to S273 residues) expressed in mammalian expression system assessed as residual activity at 5 uM by KINOMEscan assay relative to control
# Ephrin type-A receptor 2 [20] = molecular target: T1, Ephrin type-A receptor 2; experiment: Inhibition of human EPHA2 (T593 to V891 residues) expressed in bacterial expression system assessed as residual activity at 5 uM by KINOMEscan assay relative to control
# Aurora kinase B = Aurora kinase B (Homo sapiens, UniProt Q96GD4); experiment: Binding affinity to human AURKB (D25 to A303 residues) expressed in mammalian expression system by KINOMEscan assay
# [21] = molecular target: Mitogen-activated protein kinase kinase kinase 9 (Homo sapiens, UniProt P80192); experiment: Inhibition of human MLK1 (V88 to W426 residues) expressed in bacterial expression system assessed as residual activity at 5 uM by KINOMEscan assay relative to control
# [22] = molecular target: Phosphatidylinositol 4,5-bisphosphate 3-kinase catalytic subunit alpha isoform (Homo sapiens, UniProt P42336); experiment: Inhibition of human PIK3CA (R108 to N1068 residues) expressed in mammalian expression system assessed as residual activity at 5 uM by KINOMEscan assay relative to control
# [23] = molecular target: Mast/stem cell growth factor receptor Kit (Homo sapiens, UniProt P10721, T670I/V559D); experiment: Binding affinity to human KIT (I571 to D952 residues) V559D/T670I double mutant expressed in bacterial expression system by KINOMEscan assay
# [24] = molecular target: Inhibitor of nuclear factor kappa-B kinase subunit beta (Homo sapiens, UniProt O14920); experiment: Binding affinity to full length human IKKbeta (M1 to S756 residues) expressed in mammalian expression system by KINOMEscan assay
# SRSF protein kinase 3 = SRSF protein kinase 3 (Homo sapiens, UniProt Q9UPE1); experiment: Inhibition of human SRPK3 (P41 to P567 residues) expressed in bacterial expression system assessed as residual activity at 5 uM by KINOMEscan assay relative to control
# [25] = molecular target: Vascular endothelial growth factor receptor 2 (Homo sapiens, UniProt P35968); experiment: Binding affinity to human VEGFR2 (R787 to P1253 residues) expressed in mammalian expression system by KINOMEscan assay
# [26] = molecular target: Rho-associated protein kinase 2 (Homo sapiens, UniProt O75116); experiment: Inhibition of human ROCK2 (M1 to T431 residues) expressed in mammalian expression system assessed as residual activity at 5 uM by KINOMEscan assay relative to control
# Angiopoietin-1 receptor = Angiopoietin-1 receptor (Homo sapiens, UniProt Q02763); experiment: Binding affinity to human TIE2 (N804 to T1112 residues) expressed in bacterial expression system by KINOMEscan assay
# T2 sequence (P07333 whole entry, the tested form may be a part): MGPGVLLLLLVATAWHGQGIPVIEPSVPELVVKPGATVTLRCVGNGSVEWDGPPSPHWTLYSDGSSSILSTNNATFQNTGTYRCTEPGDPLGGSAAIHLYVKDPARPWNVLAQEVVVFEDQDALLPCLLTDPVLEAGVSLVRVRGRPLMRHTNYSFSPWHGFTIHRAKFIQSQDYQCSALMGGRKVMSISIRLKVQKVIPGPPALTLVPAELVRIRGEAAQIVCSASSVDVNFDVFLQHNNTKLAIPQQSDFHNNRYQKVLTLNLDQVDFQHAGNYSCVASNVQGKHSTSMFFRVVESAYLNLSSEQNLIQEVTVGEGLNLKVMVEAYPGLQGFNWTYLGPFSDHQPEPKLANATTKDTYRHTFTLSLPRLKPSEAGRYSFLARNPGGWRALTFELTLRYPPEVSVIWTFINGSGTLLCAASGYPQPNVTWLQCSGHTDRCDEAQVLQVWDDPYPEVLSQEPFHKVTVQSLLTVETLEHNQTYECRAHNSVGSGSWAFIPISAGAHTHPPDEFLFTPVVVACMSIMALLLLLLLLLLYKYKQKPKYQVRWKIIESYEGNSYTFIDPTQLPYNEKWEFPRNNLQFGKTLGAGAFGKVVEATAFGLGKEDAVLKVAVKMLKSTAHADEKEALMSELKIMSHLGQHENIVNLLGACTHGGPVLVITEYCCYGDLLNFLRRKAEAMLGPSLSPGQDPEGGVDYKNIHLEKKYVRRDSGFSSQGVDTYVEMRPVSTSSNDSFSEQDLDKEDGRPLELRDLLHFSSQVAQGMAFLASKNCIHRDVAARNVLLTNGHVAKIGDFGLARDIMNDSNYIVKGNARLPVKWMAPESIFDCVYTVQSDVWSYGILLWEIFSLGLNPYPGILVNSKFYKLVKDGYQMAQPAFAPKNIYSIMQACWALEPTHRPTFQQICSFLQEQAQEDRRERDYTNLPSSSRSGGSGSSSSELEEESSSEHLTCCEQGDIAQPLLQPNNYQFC
# T1 sequence (P29317 whole entry, the tested form may be a part): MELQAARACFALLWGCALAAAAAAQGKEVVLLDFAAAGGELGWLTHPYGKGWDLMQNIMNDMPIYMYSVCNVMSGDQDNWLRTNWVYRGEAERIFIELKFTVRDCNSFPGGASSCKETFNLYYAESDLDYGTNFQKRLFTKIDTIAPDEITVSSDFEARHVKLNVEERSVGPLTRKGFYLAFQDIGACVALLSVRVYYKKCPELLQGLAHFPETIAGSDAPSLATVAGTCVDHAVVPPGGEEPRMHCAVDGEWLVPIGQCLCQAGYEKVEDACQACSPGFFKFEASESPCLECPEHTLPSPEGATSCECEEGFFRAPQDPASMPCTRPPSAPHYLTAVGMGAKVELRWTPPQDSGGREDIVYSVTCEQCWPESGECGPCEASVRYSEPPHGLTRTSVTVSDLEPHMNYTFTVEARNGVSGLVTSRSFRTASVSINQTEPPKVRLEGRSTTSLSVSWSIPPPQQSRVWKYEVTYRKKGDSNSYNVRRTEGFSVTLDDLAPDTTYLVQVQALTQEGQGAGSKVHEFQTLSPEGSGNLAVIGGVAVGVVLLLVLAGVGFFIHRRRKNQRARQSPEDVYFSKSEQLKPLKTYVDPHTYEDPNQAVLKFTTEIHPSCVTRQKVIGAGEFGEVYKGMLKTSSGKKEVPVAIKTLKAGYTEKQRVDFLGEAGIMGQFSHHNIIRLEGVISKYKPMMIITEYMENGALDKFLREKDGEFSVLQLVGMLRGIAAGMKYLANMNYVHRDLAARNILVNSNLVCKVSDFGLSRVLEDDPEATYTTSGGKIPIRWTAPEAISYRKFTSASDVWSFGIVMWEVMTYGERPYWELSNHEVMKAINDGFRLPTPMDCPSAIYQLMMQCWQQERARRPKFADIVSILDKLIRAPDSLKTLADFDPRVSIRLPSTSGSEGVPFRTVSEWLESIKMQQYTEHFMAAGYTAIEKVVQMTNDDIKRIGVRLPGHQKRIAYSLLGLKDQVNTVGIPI
# Chain of Aurora kinase B (Q96GD4 whole entry, the tested form may be a part): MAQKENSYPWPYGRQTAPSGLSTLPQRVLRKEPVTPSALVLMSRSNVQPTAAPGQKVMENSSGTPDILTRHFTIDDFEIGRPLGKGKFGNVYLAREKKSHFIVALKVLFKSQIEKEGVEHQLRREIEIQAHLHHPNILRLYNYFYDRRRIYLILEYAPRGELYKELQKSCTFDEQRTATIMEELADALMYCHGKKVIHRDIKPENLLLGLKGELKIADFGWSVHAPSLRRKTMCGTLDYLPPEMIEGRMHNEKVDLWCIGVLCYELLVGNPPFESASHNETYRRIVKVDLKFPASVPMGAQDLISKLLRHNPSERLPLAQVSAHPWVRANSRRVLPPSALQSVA
# Chain of Mitogen-activated protein kinase 14 (Q16539 whole entry, the tested form may be a part): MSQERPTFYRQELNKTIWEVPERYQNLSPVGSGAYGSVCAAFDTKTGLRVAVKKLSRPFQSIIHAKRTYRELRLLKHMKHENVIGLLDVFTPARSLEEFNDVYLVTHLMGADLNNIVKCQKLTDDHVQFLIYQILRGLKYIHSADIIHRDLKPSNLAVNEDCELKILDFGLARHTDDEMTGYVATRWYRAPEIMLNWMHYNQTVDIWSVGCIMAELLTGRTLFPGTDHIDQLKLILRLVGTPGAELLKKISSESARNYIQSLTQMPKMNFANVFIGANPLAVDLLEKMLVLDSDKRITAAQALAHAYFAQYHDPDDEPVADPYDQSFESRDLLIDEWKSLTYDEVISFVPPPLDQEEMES
# Chain of Bone morphogenetic protein receptor type-2 (Q13873 whole entry, the tested form may be a part): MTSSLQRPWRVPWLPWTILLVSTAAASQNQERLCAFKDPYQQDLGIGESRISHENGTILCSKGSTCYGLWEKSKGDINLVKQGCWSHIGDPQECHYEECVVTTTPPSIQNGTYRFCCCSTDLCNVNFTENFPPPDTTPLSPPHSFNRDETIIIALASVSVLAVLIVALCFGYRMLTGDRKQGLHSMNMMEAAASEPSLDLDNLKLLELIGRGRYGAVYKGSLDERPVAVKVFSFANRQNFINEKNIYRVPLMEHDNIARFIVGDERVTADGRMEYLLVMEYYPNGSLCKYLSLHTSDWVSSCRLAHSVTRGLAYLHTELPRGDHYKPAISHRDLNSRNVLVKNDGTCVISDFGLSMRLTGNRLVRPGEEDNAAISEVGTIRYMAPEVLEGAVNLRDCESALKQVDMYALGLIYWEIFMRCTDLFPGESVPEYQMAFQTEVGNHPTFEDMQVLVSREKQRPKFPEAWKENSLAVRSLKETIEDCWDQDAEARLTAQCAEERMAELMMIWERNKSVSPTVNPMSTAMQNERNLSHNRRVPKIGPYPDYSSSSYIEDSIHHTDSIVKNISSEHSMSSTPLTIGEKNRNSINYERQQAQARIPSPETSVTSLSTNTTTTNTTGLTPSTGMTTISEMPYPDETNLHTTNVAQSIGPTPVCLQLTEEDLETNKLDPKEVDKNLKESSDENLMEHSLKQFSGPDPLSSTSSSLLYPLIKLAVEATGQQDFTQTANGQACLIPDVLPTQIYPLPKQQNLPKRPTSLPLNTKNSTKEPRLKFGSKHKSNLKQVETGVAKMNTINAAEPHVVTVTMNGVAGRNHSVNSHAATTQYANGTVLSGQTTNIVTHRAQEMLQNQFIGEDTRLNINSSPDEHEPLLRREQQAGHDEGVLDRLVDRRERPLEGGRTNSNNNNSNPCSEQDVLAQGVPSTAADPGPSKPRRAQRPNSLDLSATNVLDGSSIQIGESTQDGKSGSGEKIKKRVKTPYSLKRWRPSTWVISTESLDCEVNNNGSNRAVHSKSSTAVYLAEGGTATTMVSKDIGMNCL
# Chain of SRSF protein kinase 3 (Q9UPE1 whole entry, the tested form may be a part): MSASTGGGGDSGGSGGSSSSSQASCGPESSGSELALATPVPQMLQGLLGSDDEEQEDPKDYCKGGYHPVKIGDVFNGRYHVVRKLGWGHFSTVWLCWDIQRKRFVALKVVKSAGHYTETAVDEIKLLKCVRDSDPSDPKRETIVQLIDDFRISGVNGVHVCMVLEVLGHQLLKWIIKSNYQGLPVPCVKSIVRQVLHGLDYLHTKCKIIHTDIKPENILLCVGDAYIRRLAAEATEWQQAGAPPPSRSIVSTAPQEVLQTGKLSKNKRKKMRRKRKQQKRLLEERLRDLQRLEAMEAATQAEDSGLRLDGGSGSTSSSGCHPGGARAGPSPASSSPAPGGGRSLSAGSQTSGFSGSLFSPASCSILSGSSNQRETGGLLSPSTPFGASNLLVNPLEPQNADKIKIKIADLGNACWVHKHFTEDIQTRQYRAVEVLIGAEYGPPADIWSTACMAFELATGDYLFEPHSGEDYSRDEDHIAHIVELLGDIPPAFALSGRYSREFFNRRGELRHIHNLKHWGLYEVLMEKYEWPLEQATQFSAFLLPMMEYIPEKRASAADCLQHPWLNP
# Chain of Mitogen-activated protein kinase 9 (P45984 whole entry, the tested form may be a part): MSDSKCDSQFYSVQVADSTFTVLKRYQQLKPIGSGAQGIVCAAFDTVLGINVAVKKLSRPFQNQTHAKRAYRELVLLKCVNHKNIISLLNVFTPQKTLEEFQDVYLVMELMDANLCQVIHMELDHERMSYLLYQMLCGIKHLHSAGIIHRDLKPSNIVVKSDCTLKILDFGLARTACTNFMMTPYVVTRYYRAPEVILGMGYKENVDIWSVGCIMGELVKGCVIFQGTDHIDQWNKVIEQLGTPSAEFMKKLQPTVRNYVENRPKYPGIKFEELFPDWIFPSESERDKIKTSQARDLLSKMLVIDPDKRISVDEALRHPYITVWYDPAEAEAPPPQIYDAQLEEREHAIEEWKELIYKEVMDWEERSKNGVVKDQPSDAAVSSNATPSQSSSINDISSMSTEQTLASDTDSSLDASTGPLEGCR
smiles,measurement,setting,value
CC(C)CN(C(=O)c1cccnc1)c1c2ccccc2c(=O)n2c1[nH]c1ccccc12,pKd,Ephrin type-A receptor 2 [1],≤ 5.30
same,inhibition,SW-620 [2],Active
same,Activity,HT-29 [3],0.9%
same,Activity,[4],99%
same,pKd,[5],≤ 5.30
same,pKd,[6],≤ 5.30
same,inhibition,[7],Active
same,Activity,[8],100%
same,pKd,[9],≤ 5.30
same,Activity,SW-620 [10],Dose-dependent effect
same,Activity,[11],100%
same,pKd,[12],≤ 5.30
same,pKd,[13],≤ 5.30
same,pKd,[14],≤ 5.30
same,Activity,[15],100%
same,Activity,HT-29 [16],Dose-dependent effect
same,pKd,TGF-beta receptor type-1,≤ 5.30
same,Activity,[17],85%
same,pKd,[18],≤ 5.30
same,Activity,[19],100%
same,Activity,Ephrin type-A receptor 2 [20],100%
same,pKd,Aurora kinase B,≤ 5.30
same,Activity,[21],84%
same,Activity,[22],100%
same,pKd,[23],≤ 5.30
same,pKd,[24],≤ 5.30
same,Activity,SRSF protein kinase 3,98%
same,pKd,[25],≤ 5.30
same,Activity,[26],80%
same,pKd,Angiopoietin-1 receptor,≤ 5.30
